Data on 1 compound can be found in patent US20100292229A1, “TRYPHOSTIN-ANALOGS FOR THE TREATMENT OF CELL PROLIFERATIVE DISEASES” (The Board of Regents of the University of Texas System, priority 2006, published 2010).

Where two headings read alike, the source gives them in different places.

The test system of data set [1] is MM-1 cells. Kind of data set: MTT assay of cell growth and survival, MM-1 cells. The format is cell-based. Here is the method:
(§1) All compounds are tested for purity (HPLC, NMR) and the calculated molecular weight is used to make up a 10 mM stock solution of each compound (in 100% dimethylsulfoxide or 50% dimethylsulfoxide:50% polyethylene glycol 300). Compounds are diluted into cell culture media consisting of RPMI 1640 with 10% fetal bovine serum to a final starting concentration of 10 μM. [Highest final DMSO content=0.1%.]. Tumor cells (20,000 for non-adherent cells; 5,000 for adherent cells) are plated into individual wells of a 96-well culture plate in 0.1 ml of culture media. Diluted compounds are added to individual wells containing pre-plated cells (final volume 0.2 ml) and incubated at 37° C. for 24 to 72 h. Wells receiving vehicle alone acted as a control.
(§2) MTT (viability) assay. MTT reagent (20 μl of 5 mg/ml stock solution, Sigma) is added to the cells and the plates are incubated at 37° C. for another 2 h. Cells are lysed by adding 100 μl of lysis buffer (20% SDS in 50% N,N-dimethylformamide (Sigma) adjusted to pH 4.7 by 80% acetic acid and 1 M HCl such that the final concentration of acetic acid is 2.5% and HCl is 2.5%) into each well and incubated for 6 h. The OD570 of each sample is determined by using a SPECTRA MAX M2 plate reader (Molecular Devices). The OD in control and treated wells is used as an estimate of the effect of compounds on cell growth and survival.
Cell lines. […] A375 melanoma cells were grown and maintained in the same media. Ba/F3 parental cells were grown in RPMI 1640 containing 10% heat inactivated fetal bovine serum and 2 mM glutamine supplemented with IL-3 (1 ng/ml) while Ba/F3 cells stably expressing Bcr/Abl or the T315I mutant of Bcr/Abl were grown in RPMI 1640 containing 10% heat inactivated fetal bovine serum and 2 mM glutamine in the absence of IL-3. Normal human dermal fibroblasts (NHDF) were obtained from Cambrex (Walkersville, Md.) and grown in specially formulated media (obtained through Cambrex) with 20% fetal calf serum.
IC50 determinations. The anti-tumor activity of certain compounds of the present invention against MM-1 cell lines was investigated and the IC50 values calculated (FIGS. 33A-F). In a typical experiment, MM-1 cell lines were incubated with a range of compound concentrations for 72 h to determine the concentration required to inhibit cell growth or induce apoptosis by 50% (IC50). MTT assays as described above were used to conduct this analysis.
Background: Tetrazolium dyes change colour on reduction, which living cells bring about.

In data set [2] the test system is K562 cells. Kind of data set: MTT assay of cell growth and survival, K562 cells. The format is cell-based, human. To be noted: FIG. 21; anti-tumor activity. Here is the method:
as §1, §2
Cell lines. […]

Data set [3] has as its system Normal dermal human fibroblasts (NDF). The data set is described as follows: Growth/survival and MTT assay of normal dermal fibroblasts. The format is cell-based. As to the method: Normal dermal human fibroblasts were treated for 1 h at 5 μM Degrasyn before cells were rinsed and cultured in normal growth media for 72 h. Control and treated cells were photographed after 72 h. […] An MTT assay was performed with NDF and A375 cells under these conditions (1 h treatment, 72 h incubation) to estimate the IC50 distinctions between these populations.
as §2
Cell lines. […] A375 melanoma cells were grown and maintained in the same media. […]

In data set [4] the target is T1, nucleophosmin (NPM) (Homo sapiens, UniProt P06748).
T1 construct: endogenous in cells; host or cells: MM-1 and K562 cell lysates
T1 sequence (P06748 whole entry): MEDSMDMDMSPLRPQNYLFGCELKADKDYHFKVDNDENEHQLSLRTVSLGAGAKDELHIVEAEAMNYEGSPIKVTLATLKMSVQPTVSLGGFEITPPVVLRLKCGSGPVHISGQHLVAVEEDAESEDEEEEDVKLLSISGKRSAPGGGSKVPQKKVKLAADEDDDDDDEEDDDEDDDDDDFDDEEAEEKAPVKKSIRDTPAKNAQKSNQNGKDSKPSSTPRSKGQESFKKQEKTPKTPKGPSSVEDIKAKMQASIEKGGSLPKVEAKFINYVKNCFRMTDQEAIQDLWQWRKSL
Kind of data set: Affinity recovery of Degrasyn interactive proteins with streptavidin beads. To be noted: MM-1 or K562 cell lysates. The format is binding. Here is the method: Biotinylated-Degrasyn (10 μM) was incubated with lysates from MM-1 cells (10 mg total protein) and interactive proteins were assessed by affinity recovery using Streptavidin-conjugated beads to bind biotinylated-Degrasyn. Free Degrasyn (10 μM) was incubated with biotinylated-Degrasyn in a parallel experiment to assist in identifying specific protein:Degrasyn interactions. Affinity complexes were washed and Streptavidin-Bio-Deg interaction proteins were assessed by disrupting protein complexes with SDS-sample buffer and resolving proteins by SDS-PAGE. The resolved proteins were detected by silver-staining the gel. Protein bands present in the biotinylated-Degrasyn sample that were absent in samples co-incubated with free Degrasyn were identified and cut from the gel. A 38 kDa protein band was prominent in this assessment and was subjected to in gel trypsinization and identification of HPLC resolved tryptic peptides by tandem mass spectroscopy analysis (David Hawke, Department of Molecular Pathology, M.D. Anderson Cancer Center). This analysis identified nucleophosmin (NPM) as a Degrasyn interactive protein.
To further assess the interaction between NPM and Degrasyn, biotinylated-Degrasyn/streptavidin beads were incubated with MM-1 (left) or K562 (right) cell lysates. In parallel, lysates were co-incubated with free Degrasyn to determine the specificity of the interaction with NPM. […]

Data set [5] concerns p70 and p55 tyrosine phosphorylation. The data set is described as follows: Phosphotyrosine (4G10) immunoblot in B-cell malignancy cell lines. The format is cell-based. As to the method:
MM-1 cells were pretreated with Degrasyn (at the concentration indicated) for 2 h before the addition of IL-6 for 15 min (as noted). Total cell lysates were prepared and equal protein aliquots were resolved by SDS-PAGE and immunoblotted for phosphotyrosine (4G10).
MM-1 and LP (lymphoma) cells were treated with Degrasyn (at the concentration indicated) for 2 h before cell lysates were prepared and equal protein aliquots were resolved by SDS-PAGE and immunoblotted for phosphotyrosine (4G10).
MM-1 and Mino (Mantle cell lymphoma) cells were treated with Degrasyns with different levels of anti-tumor efficacy (at the concentration indicated) for 2 h before cell lysates were prepared and equal protein aliquots were resolved by SDS-PAGE and immunoblotted for phosphotyrosine (4G10).
MM-1 cells were treated as indicated before analysis of cellular tyrosine phosphorylation by immunoblotting. Both p70 and p55 were tyrosine phosphorylated after 15 min of Degrasyn treatment which peaks in intensity after 1 h and remains higher than control levels after 4 h. These early changes may underlie or be a marker of Degrasyn activity in B-cell malignancies.
Western Blot analysis. Cells were harvested, washed twice in cold 1×PBS and lysed in modified RIPA lysis buffer (150 mM NaCl, 1% NP-40, 0.5% Na-deoxycholate [DOC], 0.1% Na-dodecyl sulfate [SDS], 50 mM Tris-HCl (pH 7.5), 1 mM EDTA, 1 mM NaF, 2 mM Na-vanadate, with protease inhibitors (1 mM PMSF, 1 mM benzamidine, 10 μg/ml aprotinin, 10 μg/ml leupeptin) on ice for 30 min. The lysed cells were centrifuged at 13,000 rpm for 30 min and the supernatant collected. The protein concentration of the cell lysate was determined by the Bradford Protein Assay. Fifty to 60 μg of protein were resolved in a 10% SDS-PAGE, and transferred to a PVDF membrane. Western blotting was performed using specific primary antibodies Peroxidase-conjugated affiniPure anti-Mouse Anti-Rabbit secondary antibodies (Jackson Immunoresearch Laboratories, West Grove, Pa.). The proteins were visualized with ECL Plus reagents (Amersham Biosciences).

Consider `CCC[C@H](NC(=O)/C(C#N)=C/c1cccc(Br)n1)c1ccccc1` [Degrasyn], for which the IC50 in data set [1] (FIG. 21, anti-tumor activity, read-out: IC50 for MM-1 cells) is 1400 nM; in data set [1] (FIG. 31, 72 h, MTT, average of 4 determinations, read-out: IC50, MM-1 cells) it was approximately 1200 nM; in data set [2], 2800 nM. Moreover, the “Growth or survival of normal dermal fibroblasts” value in data set [3] (5 μM for 1 h, then 72 h in normal growth media) is given as “did not affect the growth or survival of NDFs”. Moreover, the “Activity against melanoma tumors relative to normal dermal fibroblast” value in data set [3] (A375 vs NDF, MTT, 1 h treatment, 72 h incubation) is recorded as more than 5 fold. In addition, in data set [4], the “Interaction with NPM” value was “interacts with NPM”. Also, the “Tyrosine phosphorylated protein species (~70 kDa, ~55 kDa)” value in data set [5] (2 h, MM-1, LP or Mino cells) is reported as “increased”. Further, the “Time at which p70 and p55 were tyrosine phosphorylated” value in data set [5] (MM-1) was found to be 15 min. The “Time of peak intensity of p70 and p55 tyrosine phosphorylation” value in data set [5] (MM-1) turned out to be 1 h. Further, the “Tyrosine phosphorylated protein species (~70 kDa, ~55 kDa), with IL-6” value in data set [5] (MM-1, 2 h pretreatment, IL-6 15 min) is recorded as “increased”.

The IC50 is the concentration at which inhibition is half-maximal.
